Tested on: B*0702-transgenic mice
Details: mouse, in vivo, sc

## RPRWLDARV
  Average T cell response: 659 SFC/10^6 CD8^+

— paper PMC3872965 (Journal of immunology (Baltimore, Md. : 1950), 2013)
